Reference: ChEMBL document CHEMBL1134270, “Optimization of 4-phenylamino-3-quinolinecarbonitriles as potent inhibitors of Src kinase activity” (J Med Chem, 2001)

Tests used:
[1] = molecular target: Proto-oncogene tyrosine-protein kinase Src (Homo sapiens, UniProt P12931); test: Inhibition against Src kinase
Rattus norvegicus = species: Rattus norvegicus; test: Ability to inhibit the proliferation of c-Src transformed rat fibroblasts growing in suspension; format: functional
[2] = plasma concentration of compound at four hour after the of intraperitoneal administration of 50 mg/kg; format: ADME, organism-based; design: dose 50 mg/kg, route intraperitoneal; settings: ip
[3] = plasma concentration of compound at one hour after the of intraperitoneal administration of 50 mg/kg; format: ADME, organism-based; design: dose 50 mg/kg, route intraperitoneal; settings: ip
HT-29 = test: Inhibition of HT-29 cell monolayer proliferation at 5 uM; format: functional, cell-based; settings: Homo sapiens
[4] = molecular target: Platelet-derived growth factor receptor (PDGFr) (Rattus norvegicus, UniProt P20786+Q05030); test: Inhibition of PDGF receptor transfected rat1A cell proliferation; format: functional
[5] = plasma concentration of compound at four hours after the of intraperitoneal administration of 50 mg/kg; format: ADME, organism-based; design: dose 50 mg/kg, route intraperitoneal; settings: ip

Chain of Proto-oncogene tyrosine-protein kinase Src (P12931 2-536 limits assumed): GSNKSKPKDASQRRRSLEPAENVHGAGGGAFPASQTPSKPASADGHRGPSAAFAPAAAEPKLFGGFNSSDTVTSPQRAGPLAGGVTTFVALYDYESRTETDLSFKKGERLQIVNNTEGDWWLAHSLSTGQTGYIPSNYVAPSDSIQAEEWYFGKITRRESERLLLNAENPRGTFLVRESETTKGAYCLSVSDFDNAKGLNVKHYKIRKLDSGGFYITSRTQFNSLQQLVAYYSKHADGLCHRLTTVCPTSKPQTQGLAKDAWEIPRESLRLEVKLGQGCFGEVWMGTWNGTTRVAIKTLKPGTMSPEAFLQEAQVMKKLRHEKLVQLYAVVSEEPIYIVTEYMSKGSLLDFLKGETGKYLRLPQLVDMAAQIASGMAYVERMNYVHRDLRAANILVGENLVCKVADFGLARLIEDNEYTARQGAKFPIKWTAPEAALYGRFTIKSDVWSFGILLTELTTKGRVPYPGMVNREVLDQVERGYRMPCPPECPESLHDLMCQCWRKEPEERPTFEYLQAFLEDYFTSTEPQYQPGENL

Row | SMILES | IC50 [1] | IC50 (Rattus norvegicus) | also measured
1 | CCOc1cc(Nc2c(C#N)cnc3cc(OC)c(OC)cc23)c(Cl)cc1C | > 5000 nM |  | 
2 | COc1cc(Nc2c(C#N)cnc3cc(OC)c(OC)cc23)c(C)cc1Cl | 4 nM |  | 
3 | CCN1CCN(CCCOc2cc3ncc(C#N)c(Nc4cc(OC)c(Cl)cc4Cl)c3cc2OC)CC1 |  | 130 nM | 
4 | COc1cc2ncc(C#N)c(Nc3cc(O)c(Cl)cc3Cl)c2cc1OC | 190 nM |  | 
5 | COc1cc(Nc2ncnc3cc(OC)c(OC)cc23)c(Cl)cc1Cl | 390 nM |  | 
6 | CCOc1cc(Nc2c(C#N)cnc3cc(OC)c(OC)cc23)c(Cl)cc1Cl | 1200 nM |  | 
7 | COc1cc(Nc2c(C#N)cnc3cc(OC)c(OC)cc23)ccc1Cl | 120 nM |  | 
8 | COc1cc(Nc2c(C#N)cnc3cc(OC)c(OC)cc23)c(Br)cc1Cl | 3 nM |  | 
9 | COc1cc(Nc2c(C#N)cnc3cc(OCCCNCCN4CCOCC4)c(OC)cc23)c(Cl)cc1Cl | 3 nM | 1200 nM | 
10 | CCCOc1cc(Nc2c(C#N)cnc3cc(OC)c(OC)cc23)c(Cl)cc1Cl | > 5000 nM |  | 
11 | COc1cc(Nc2c(C#N)cnc3cc(OC)c(OC)cc23)c(C)cc1C | 4.6 nM |  | 
12 | COc1cc(Nc2ccnc3cc(OC)c(OC)cc23)c(Cl)cc1Cl | 81 nM |  | 
13 | CCCN1CCN(CCCOc2cc3ncc(C#N)c(Nc4cc(OC)c(Cl)cc4Cl)c3cc2OC)CC1 |  | 160 nM | 
14 | COc1cc(Nc2c(C#N)cnc3cc(OCCCN4CCN(C)CC4)c(OC)cc23)c(Cl)cc1Cl [BOSUTINIB] |  | 100 nM | IC50 (HT-29): 5000 nM; IC50 [4]: 4000 nM; concentration at 4 h [2]: 900 ng/mL; concentration at 1 h [3]: 3000 ng/mL
15 | COc1cc(Nc2c(C#N)cnc3cc(OCCCn4nccn4)c(OC)cc23)c(Cl)cc1Cl | 9.3 nM | 1900 nM | 
16 | COc1cc2c(Nc3ccc(Cl)cc3Cl)c(C#N)cnc2cc1OCCCN1CCOCC1 |  | 940 nM | 
17 | COc1cc(Nc2c(C#N)cnc3cc(OC)c(OCCCN4CCOCC4)cc23)c(Cl)cc1Cl | 28 nM | 1200 nM | 
18 | COc1cc(Nc2c(C#N)cnc3cc(OC)c(OC)cc23)c(Cl)cc1Cl | 4.3 nM |  | 
19 | COc1cc(Nc2c(C#N)cnc3cc(OC)c(OC)cc23)c(F)cc1Cl | 66 nM |  | 
20 | COc1ccc(Cl)c(Nc2c(C#N)cnc3cc(OC)c(OC)cc23)c1 | 10 nM |  | 

Further lines, with some results ahead:

Row | IC50 [1] | SMILES | IC50 (Rattus norvegicus) | also measured
21 | 2.3 nM | COc1cc(Nc2c(C#N)cnc3cc(OCCN4CCOCC4)c(OC)cc23)c(Cl)cc1Cl | 190 nM | 
22 | 1.2 nM | COc1cc(Nc2c(C#N)cnc3cc(OCCCN4CCCCC4)c(OC)cc23)c(Cl)cc1Cl | 150 nM | 
23 | 2.9 nM | COc1cc(Nc2c(C#N)cnc3cc(OC)c(OC)cc23)c(Cl)cc1C |  | 
24 | 1.1 nM | COc1cc(Nc2c(C#N)cnc3cc(OCCCN4CCNCC4)c(OC)cc23)c(Cl)cc1Cl | 1700 nM | 
25 | 1.7 nM | COc1cc(Nc2c(C#N)cnc3cc(OCCCN4CCOCC4)c(OC)cc23)c(C)cc1C | 160 nM | 
26 | 1.6 nM | COc1ccc(Cl)c(Nc2c(C#N)cnc3cc(OCCCN4CCOCC4)c(OC)cc23)c1 | 150 nM | 
27 | 2.1 nM | COc1cc(Nc2c(C#N)cnc3cc(OCCCn4ccnc4)c(OC)cc23)c(Cl)cc1Cl | 1400 nM | 
28 | 2.3 nM | COc1cc(Nc2c(C#N)cnc3cc(OCCCN(C)CCN(C)C)c(OC)cc23)c(Cl)cc1Cl | 650 nM | 
29 | 1.9 nM | COc1cc(Nc2c(C#N)cnc3cc(OCCCn4ccnn4)c(OC)cc23)c(Cl)cc1Cl | 920 nM | concentration at 4 h [2]: 300 ng/mL; concentration at 1 h [3]: 1300 ng/mL
30 | 2.5 nM | COc1cc(Nc2c(C#N)cnc3cc(OCCCCCN4CCOCC4)c(OC)cc23)c(Cl)cc1Cl | 320 nM | 
31 | 0.76 nM | COc1cc(Nc2c(C#N)cnc3cc(OCCCN4CCN(CCO)CC4)c(OC)cc23)c(Cl)cc1Cl | 610 nM | 
32 | 1.3 nM | COc1cc(Nc2c(C#N)cnc3cc(OCCCCN4CCOCC4)c(OC)cc23)c(Cl)cc1Cl | 330 nM | 
33 | 1.4 nM | COc1cc(Nc2c(C#N)cnc3cc(OCCCN4CC(C)N(C)C(C)C4)c(OC)cc23)c(Cl)cc1Cl (stereo not drawn) | 220 nM | 
34 | 0.8 nM | COc1cc(Nc2c(C#N)cnc3cc(OCCCN4CCOCC4)c(OC)cc23)c(Cl)cc1Cl | 140 nM | concentration at 1 h [3]: 100 ng/mL; concentration at 4 h [5]: 100 ng/mL
35 | 0.64 nM | COc1cc(Nc2c(C#N)cnc3cc(OCCCN4CCC(O)CC4)c(OC)cc23)c(Cl)cc1Cl | 840 nM | 
36 | 1.2 nM | COc1cc(Nc2c(C#N)cnc3cc(OCCCN4CCOCC4)c(OC)cc23)c(C)cc1Cl | 150 nM | 
37 | 1.1 nM | COc1cc(Nc2c(C#N)cnc3cc(OCCCN4CCOCC4)c(OC)cc23)c(Cl)cc1C | 100 nM | 
38 | 0.95 nM | COc1cc(Nc2c(C#N)cnc3cc(OCCCN4CCOCC4)c(OC)cc23)c(Br)cc1Cl | 71 nM | 
39 | 1.4 nM | COc1cc(Nc2c(C#N)cnc3cc(OCCCN4CCCN(C)CC4)c(OC)cc23)c(Cl)cc1Cl | 350 nM | 
